# Measured values taken from patent publication US6545131B1, “Tissue specific prodrug” (priority 1997, dated 2003).
# Starred links: 1 amine or outer side, 2 acyl side, 3 side chain; linkers in the order of their positions; H or OH if unused. Residues, ends and D or L forms follow the SMILES beside them. *: point of attachment. Mu = morpholinocarbonyl, O=C(N1CCOCC1)*; AMC = Cc1cc(=O)oc2cc(N*)ccc12; Morpholide = C1CN(*)CCO1; CO = O=C([*:1])[*:2]
# What was measured:
# [1] = system: TSU-Pr1 cells; experiment: Clonogenic survival of TSU-Pr1 cells after 72 hours exposure to TG analogs; assay type: cell-based, human; conditions: TSU-Pr1, 72 hours exposure; mean (n=5) ± standard error; read-out: LC50 (concentration needed to kill 50% of clonogenic cells)
# Method: The primary amine-containing thapsigargin analogs of the invention have non-specific toxicity toward cells. This toxicity is measured as the concentration of analog needed to kill 50% of clonogenic cells (LC50). The LC50 of the analogs of the invention is desirably at most 20 μM, preferably at most 5 μM, and more preferably at most 500 nM of analog.
# Percentage clonogenic survival of TSU-Pr1 (2×10^5 cells) following 72 hours of exposure to varying concentrations of TG analogs was performed as described in Martikainen et al. Cancer Res., 51, 4693-4700 (1991).
# The IC50 results are mean (n=3)±standard error. The LC50 results are mean (n=5)±standard error. The entry “ND” stands for “not determined”. Clonogenic survival not determined above 10 μM for dBTG. Analogs with −boc have a t-butoxycarbonyl (boc) protected amino group.
# The androgen responsive PSA-producing LNCaP and androgen independent PSA non-producing TSU-Pr1 are human prostate cancer lines were obtained from ATCC (Rockville, Md.) and maintained by serial passage in RPMI 1640 media containing 10% fetal calf serum with 100 units/ml penicillin G, and 100 units/ml streptomycin sulfate (antibiotics from M.A. Bioproducts, Walkerville, Md.) as standard media in 5% CO2/95% air at 37° C. The origins and characteristics of the LNCaP and TSU-Pr1 cell lines are described in Horoszewicz, et al., Cancer Res., 43:1809-1818, (1980)and Iizumi, et al., J. Urol, 137: 1304-1306, (1987).
# [2] = target: T1, PSA (prostate specific antigen) (Homo sapiens, UniProt P07288); experiment: Cleavage of AMC-labelled peptide substrates by purified PSA (fluorescence of released AMC; Lineweaver-Burke kinetics); assay type: biochemical; conditions: 0.2 mM substrate
# T1 construct: PSA was purified from human seminal plasma; from tissue; host or cells: human seminal plasma
# T1 sequence (P07288 25-261): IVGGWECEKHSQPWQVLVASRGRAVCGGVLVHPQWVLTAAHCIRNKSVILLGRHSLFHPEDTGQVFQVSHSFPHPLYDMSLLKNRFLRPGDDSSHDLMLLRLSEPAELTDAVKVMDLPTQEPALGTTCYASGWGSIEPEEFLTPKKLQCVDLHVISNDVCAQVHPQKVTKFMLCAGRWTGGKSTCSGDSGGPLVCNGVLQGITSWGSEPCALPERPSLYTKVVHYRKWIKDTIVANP
# Method: (§1) The peptides discussed herein were custom synthesized by Enzyme Systems Products (Dublin, Calif.) and, after HPLC separation and purification to >95%, the molecular weights were confirmed by mass spectroscopy. All peptides had morpholinocarbonyl protecting the amino terminus and 7-amino-4-methylcoumarin (AMC) attached via an amide bond to the carboxyl group of the carboxy-terminal amino acid. Peptides were first dissolved in distilled water (5 mM) and then diluted into PSA assay buffer (50 mM Tris/0.1M NaCl pH 7.8). The glutamine-AMC peptide had the amino terminus and side chain amine unprotected and was obtained from Bachem (Torrance, Calif.).
# (§2) PSA was purified from human seminal plasma as described in Christensson, et al. Eur. J. Biochem. 194:755-765, (1990). Plasmin, urokinase, tissue plasminogen activator (TPA), human plasma and porcine pancreatic kallikrein and a 1-antichymotrypsin were obtained from Calbiochem (San Diego, Calif.). All other proteases were obtained from Sigma Chemical Co. (St. Louis, Mo.). Mouse serum was obtained from East Acres Biologicals (South Bridge, Mass.). Goat and calf sera were obtained from Gibco BRL (Grand Island, N.Y.). Rat serum was obtained in-house from sacrificed animals. Human serum was obtained from volunteers.
# (§3) Cleavage was studied by measuring fluorescence change secondary to AMC release. Fluorescence detection was carried out with a Fluoroskan II 96 well fluorometric plate reader (ICN Biomedicals, Costa Mesa, Calif.), with excitation wavelength 355 nm and emission wavelength 460 nm. Data were collected and analyzed using Deltasoft III software (Biometallics, Princeton, N.J.). All reactions were performed at room temperature by the addition of substrate and proteases into PSA buffer, described below, in a final volume of 200 μL. The results were determined from the initial linear increase of fluorescence and were expressed as the picomoles of AMC released per minute based upon comparison to a standard curve of the fluorescence of known amounts of AMC (i.e., fluorescence was linear form 20 to 300 picomoles of AMC). The data were analyzed by Lineweaver-Burke reciprocal plots to determine the Michaelis-Menten constant (i.e., Km) expressed as the amount of substrate needed to saturate half of the enzyme and the catalytic rate constant (i.e., kcat) expressed as the amount of substrate converted to product per time per amount of enzyme.
# (§4) Each assay contains 200 picomoles of the particular protease and 0.2 mM concentration of the particular substrate (i.e., 40,000 picomoles/200 μL of assay volume). The amino acid sequences expressed in one letter amino acid code represent the following amino acid sequences in the three letter amino acid code: EHSSKLQ (Glu-His-Ser-Ser-Lys-Leu-Gln; SEQ ID NO:10), QNKISYQ (Gln-Asn-Lys-Ile-Ser-Tyr-Gln; SEQ ID NO:11), ENKISYQ (Glu-Asn-Lys-Ile-Ser-Tyr-Gln; SEQ ID NO:12), and ATKSKQH (Ala-Thr-Lys-Ser-Lys-Gln-His; SEQ ID NO:13). Determinations listed in the table were carried out with substrates at 0.2 mM concentration in the PSA assay buffer (50 mM Tris/0.1M NaCl pH 7.8). The entry “UD” stands for “undetectable” and means that at most, 0.1 pmole of substrate cleavage per minute per 200 pmole protease took place. Asterisks represent experiments not performed. Abbreviations are as follows: PSA (prostate specific antigen), Chymo (chymotrypsin), Urokin (urokinase), TPA (tissue plasminogen activator), Thromb (thrombin), Kallik (human kallikrein, hK1).
# The data in Table 2 are the results of kinetic experiments with the peptide substrates used in Example 1. Experimental details are found in Example 1.
# The amino acid sequences expressed in one letter amino acid code represent the following amino acid sequences in the three letter amino acid code: EHSSKLQ (Glu-His-Ser-Ser-Lys-Leu-Gln; SEQ ID NO:10), HSSKLQ (His-Ser-Ser-Lys-Leu-Gln; SEQ ID NO:7), SKLQ (Ser-Lys-Leu-Gln; SEQ ID NO:1), and ATKSKQH (Ala-Thr-Lys-Ser-Lys-Gln-His; SEQ ID NO:13). […]
# [3] = target: T2, Cathepsin B (Homo sapiens, UniProt P07858); experiment: PSA substrate cleavage by purified intracellular protease; assay type: biochemical; conditions: 0.2 mM substrate, pH 7.8; SKLQ, KLQ, LQ in 1.4% acetonitrile/buffer, Q-AMC in 0.2% formic acid/buffer
# T2 construct: purchased Sigma Chemical Co
# Method: as §3
# (§5) A family of peptide substrates based upon the EHSSKLQ (SEQ ID NO:10) sequence was assayed for activity for the intracellular proteases, and the results given in Table 4.
# (§6) The amino acid sequences expressed in one letter amino acid code represent the following amino acid sequences in the three letter amino acid code: EHSSKLQ (Glu-His-Ser-Ser-Lys-Leu-Gln; SEQ ID NO:10), The shorter sequences are formed by deleting amino acids from the amino terminal side of the sequence. Determinations listed in the table were carried out with substrates at 0.2 mM concentration in the PSA assay buffer (50 mM Tris/0.1M NaCl pH 7.8), except SKLQ (SEQ ID NO:1), KLQ and LQ, which were carried out in 1.4% acetonitrile/buffer and Q-AMC which was carried out in 0.2% formic acid/buffer, at pH 7.8. The entry “UD” stands for “undetectable” and means that at most, 0.1 pmole of substrate cleavage per minute per 200 pmole protease took place. Asterisks represent experiments not performed. Abbreviations are as follows: PSA (prostate specific antigen), Cath B, C, D (Cathepsins, B, C, D), Esterase (porcine liver esterase).
# [4] = target: T3, Cathepsin C (Homo sapiens, UniProt P53634); experiment: as above; assay type: biochemical; conditions: 0.2 mM substrate, pH 7.8; SKLQ, KLQ, LQ in 1.4% acetonitrile/buffer, Q-AMC in 0.2% formic acid/buffer
# T3 construct: purchased Sigma Chemical Co
# T3 sequence (P53634 25-463): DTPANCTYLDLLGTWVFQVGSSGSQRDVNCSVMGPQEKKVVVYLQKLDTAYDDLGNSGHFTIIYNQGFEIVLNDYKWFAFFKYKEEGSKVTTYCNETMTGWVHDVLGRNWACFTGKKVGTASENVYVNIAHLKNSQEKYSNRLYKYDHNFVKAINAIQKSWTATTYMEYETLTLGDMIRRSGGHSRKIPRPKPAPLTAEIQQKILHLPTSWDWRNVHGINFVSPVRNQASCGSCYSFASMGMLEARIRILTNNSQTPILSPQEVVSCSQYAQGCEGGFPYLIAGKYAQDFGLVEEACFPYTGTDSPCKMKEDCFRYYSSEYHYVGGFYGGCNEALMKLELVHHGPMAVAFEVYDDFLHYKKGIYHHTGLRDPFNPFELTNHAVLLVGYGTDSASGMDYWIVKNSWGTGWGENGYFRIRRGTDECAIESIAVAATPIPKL
# Method: as §3, §5, §6
# [5] = system: porcine liver esterase; experiment: as above; assay type: biochemical; conditions: 0.2 mM substrate, pH 7.8; SKLQ, KLQ, LQ in 1.4% acetonitrile/buffer, Q-AMC in 0.2% formic acid/buffer
# Method: as §3, §5, §6
# [6] = system: Elastase; experiment: Peptide-AMC cleavage by purified extracellular protease; assay type: biochemical; conditions: 0.2 mM substrate, PSA assay buffer pH 7.8
# Method: as §1, §2, §3, §4
# [7] = target: T4, Plasmin (Homo sapiens, UniProt P00747); experiment: as above; assay type: biochemical; conditions: 0.2 mM substrate, PSA assay buffer pH 7.8
# T4 construct: purchased Calbiochem
# T4 sequence (P00747 581-810 limits assumed, species assumed): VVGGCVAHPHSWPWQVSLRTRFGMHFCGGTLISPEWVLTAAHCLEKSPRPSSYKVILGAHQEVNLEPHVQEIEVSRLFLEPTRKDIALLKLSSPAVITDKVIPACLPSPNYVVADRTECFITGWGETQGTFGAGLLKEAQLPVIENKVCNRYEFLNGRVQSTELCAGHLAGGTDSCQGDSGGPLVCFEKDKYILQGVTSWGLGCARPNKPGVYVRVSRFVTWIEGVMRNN
# T4 sequence (P00747 97-580 partner limits assumed, species assumed): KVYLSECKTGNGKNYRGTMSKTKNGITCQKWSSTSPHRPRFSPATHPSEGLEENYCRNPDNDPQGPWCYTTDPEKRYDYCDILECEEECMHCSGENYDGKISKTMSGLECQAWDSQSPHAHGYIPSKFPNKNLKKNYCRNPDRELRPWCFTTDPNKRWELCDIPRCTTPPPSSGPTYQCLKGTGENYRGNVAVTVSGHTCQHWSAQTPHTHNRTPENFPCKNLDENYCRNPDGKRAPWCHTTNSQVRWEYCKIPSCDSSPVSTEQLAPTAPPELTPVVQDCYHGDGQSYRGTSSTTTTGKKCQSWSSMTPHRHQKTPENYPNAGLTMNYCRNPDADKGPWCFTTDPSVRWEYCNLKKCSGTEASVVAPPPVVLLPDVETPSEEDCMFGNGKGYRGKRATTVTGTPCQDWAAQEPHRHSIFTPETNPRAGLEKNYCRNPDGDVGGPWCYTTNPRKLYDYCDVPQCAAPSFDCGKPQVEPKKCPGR
# Method: as §1, §2, §3, §4
# [8] = system: Trypsin; experiment: as above; assay type: biochemical; conditions: 0.2 mM substrate, PSA assay buffer pH 7.8
# Method: as §1, §2, §3, §4
# [9] = target: T5, chymotrypsin (Bos taurus, UniProt P00766); experiment: as above; assay type: biochemical; conditions: 0.2 mM substrate, PSA assay buffer pH 7.8
# T5 construct: purchased Sigma Chemical Co
# Method: as §1, §2, §3, §4
# [10] = target: T6, thrombin (Homo sapiens, UniProt P00734); experiment: as above; assay type: biochemical; conditions: 0.2 mM substrate, PSA assay buffer pH 7.8
# T6 construct: purchased Sigma Chemical Co
# Method: as §1, §2, §3, §4
# [11] = target: T7, tissue plasminogen activator (TPA) (Homo sapiens, UniProt P00750); experiment: as above; assay type: biochemical; conditions: 0.2 mM substrate, PSA assay buffer pH 7.8
# T7 construct: purchased Calbiochem
# T7 sequence (P00750 36-562, species assumed): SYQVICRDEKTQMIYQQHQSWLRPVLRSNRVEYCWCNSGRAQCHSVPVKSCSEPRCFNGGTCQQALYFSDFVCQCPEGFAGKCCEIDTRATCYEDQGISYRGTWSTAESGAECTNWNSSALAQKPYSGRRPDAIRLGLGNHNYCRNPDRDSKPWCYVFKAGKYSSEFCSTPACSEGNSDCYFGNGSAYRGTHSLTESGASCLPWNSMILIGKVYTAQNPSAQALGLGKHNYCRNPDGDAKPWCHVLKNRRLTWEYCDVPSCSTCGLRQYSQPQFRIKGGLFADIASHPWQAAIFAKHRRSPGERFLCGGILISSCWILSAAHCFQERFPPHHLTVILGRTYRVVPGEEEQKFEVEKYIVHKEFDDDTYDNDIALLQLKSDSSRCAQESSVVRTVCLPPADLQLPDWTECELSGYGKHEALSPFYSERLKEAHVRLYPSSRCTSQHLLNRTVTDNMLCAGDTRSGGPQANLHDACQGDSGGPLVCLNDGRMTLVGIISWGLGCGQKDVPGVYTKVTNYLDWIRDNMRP
# Method: as §1, §2, §3, §4
# [12] = Stability of PSA substrates in serum (AMC release); assay type: in vitro ADME; conditions: 0.2 mM substrate
# Source text: as §2, §3
# Because the prodrug can be given systemically via the blood, it is useful to determine the stability of the substrates in sera from a variety of species. The substrates and experimental details are found as described in Example 1.
# The amino acid sequences expressed in one letter amino acid code represent the following amino acid sequences in the three letter amino acid code: EHSSKLQ (Glu-His-Ser-Ser-Lys-Leu-Gln; SEQ ID NO:10), QNKISYQ (Gln-Asn-Lys-Ile-Ser-Tyr-Gln; SEQ ID NO:11), ENKISYQ (Glu-Asn-Lys-Ile-Ser-Tyr-Gln; SEQ ID NO:12) and ATKSKQH (Ala-Thr-Lys-Ser-Lys-Gln-His; SEQ ID NO:13). Determinations listed in the table were carried out with substrates at 0.2 mM concentration in the PSA assay buffer (50 mM Tris/0.1M NaCl pH 7.8). AMC is 7-amino-4-methylcoumarin. The human serum used was 100% for each assay. The entry “UD” stands for “undetectable”, and means that not more than 0.01 picomole of substrate per minute was cleaved.
compound,measurement,setting,value
"C/C=C(/C)C(=O)OC1C(C)=C2C(C1OC(=O)CCCCCCC)C(C)(OC(C)=O)CC(OC(=O)Cc1ccc(N)cc1)C1(O)C2OC(=O)C1(C)O (centres unmarked) [AAT, 8-O-(2-[4-aminophenyl]acetyl)-8-O-debutanoylthapsigargin]",CC50,[1],> 10 µM
KLQ: shorter sequence formed by deleting amino acids from the amino terminal side of EHSSKLQ; AMC substrate (Mu-Lys-Leu-Gln-{AMC}; also: AMC substrate),picomoles of peptide cleaved/min/200 picomoles protease: PSA,"[2]; pH 7.8, SKLQ, KLQ, LQ in 1.4% acetonitrile/buffer, Q-AMC in 0.2% formic acid/buffer",0.4 picomoles/min/200 picomoles pr
same,picomoles of peptide cleaved/min/200 picomoles protease: Cath B,[3],87.0 picomoles/min/200 picomoles pr
same,picomoles of peptide cleaved/min/200 picomoles protease: Cath C,[4],"UD (at most, 0.1 pmole of substrate cleavage per minute per 200 pmole protease took place)"
same,picomoles of peptide cleaved/min/200 picomoles protease: Esterase,[5],"UD (at most, 0.1 pmole of substrate cleavage per minute per 200 pmole protease took place)"
"C/C=C(/C)C(=O)OC1C(C)=C2C(C1OC(=O)CCCCCCC)C(C)(OC(C)=O)CC(OC(=O)c1ccc(NC(=O)OC(C)(C)C)cc1)C1(O)C2OC(=O)C1(C)O (centres unmarked) [ABT-boc, 8-O-(4-t-butoxycarbonylaminobenzoyl)-8-O-debutanoylthapsigargin]",CC50,[1],12 ± 0.3 µM
"CC[C@H](C)[C@H](NC(=O)[C@H](CCCCN)NC(=O)[C@H](CC(N)=O)NC(=O)[C@H](CCC(N)=O)NC(=O)N1CCOCC1)C(=O)N[C@@H](CO)C(=O)N[C@@H](Cc1ccc(O)cc1)C(=O)N[C@@H](CCC(N)=O)C(=O)Nc1ccc2c(C)cc(=O)oc2c1 [QNKISYQ, Gln-Asn-Lys-Ile-Ser-Tyr-Gln] ({Morpholide-CO}-QNKISYQ-{AMC})",Picomoles of substrate cleaved/minute/200 pmoles of indicated protease: PSA,"[2]; PSA assay buffer pH 7.8, room temperature",16.8 picomoles/minute/200 pmoles pr
same,Picomoles of substrate cleaved/minute/200 pmoles of indicated protease: Elastase,[6],9.0 picomoles/minute/200 pmoles pr
same,Picomoles of substrate cleaved/minute/200 pmoles of indicated protease: Plasmin,[7],"UD (at most, 0.1 pmole of substrate cleavage per minute per 200 pmole protease took place)"
same,Picomoles of substrate cleaved/minute/200 pmoles of indicated protease: Trypsin,[8],"UD (at most, 0.1 pmole of substrate cleavage per minute per 200 pmole protease took place)"
same,Picomoles of substrate cleaved/minute/200 pmoles of indicated protease: Chymo,[9],9.0 picomoles/minute/200 pmoles pr
same,Picomoles of substrate cleaved/minute/200 pmoles of indicated protease: Thromb,[10],0.4 picomoles/minute/200 pmoles pr
same,Picomoles of substrate cleaved/minute/200 pmoles of indicated protease: TPA,[11],0.4 picomoles/minute/200 pmoles pr
same,picomles AMC released/minute: Calf,[12],UD (not more than 0.01 picomole of substrate per minute was cleaved)
same,picomles AMC released/minute: Fetal Calf,[12],11.60 picomoles/minute
same,picomles AMC released/minute: Goat,[12],5.54 picomoles/minute
same,picomles AMC released/minute: Mouse,[12],1.67 picomoles/minute
same,picomles AMC released/minute: Rat,[12],10.7 picomoles/minute
same,picomles AMC released/minute: Human,[12]; human serum 100%,1.54 picomoles/minute
8-O-(2-[4-t-butoxycarbonylaminophenyl]acetyl)-8-O-debutanoylthapsigargin [AAT-boc],CC50,[1],> 10 µM
